Test results from paper PMC2248166, “Quantitative peptide binding motifs for 19 human and mouse MHC class I molecules derived using positional scanning combinatorial peptide libraries” (Immunome Research, 2008).
Where a SMILES comes first, the peptide text is derived from it.

target: HLA A*3001 (Homo sapiens, UniProt P04439, D140H/D185E/E176W/F33S/G80R/H175R/K168Q/R138E/R41S); assay: biochemical; type: binding
Sequence (P04439 25-365 limits assumed, stated change not applied): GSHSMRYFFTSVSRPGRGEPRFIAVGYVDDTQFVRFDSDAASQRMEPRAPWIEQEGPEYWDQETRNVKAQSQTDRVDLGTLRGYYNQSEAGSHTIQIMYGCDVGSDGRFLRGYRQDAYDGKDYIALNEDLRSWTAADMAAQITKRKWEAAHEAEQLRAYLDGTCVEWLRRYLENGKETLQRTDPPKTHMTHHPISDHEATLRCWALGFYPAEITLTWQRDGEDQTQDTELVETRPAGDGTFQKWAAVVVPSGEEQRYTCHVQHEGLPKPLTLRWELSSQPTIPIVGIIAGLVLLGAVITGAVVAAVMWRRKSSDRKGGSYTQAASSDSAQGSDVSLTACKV

SMILES | IC50
CC[C@H](C)[C@H](NC(=O)[C@H](Cc1ccc(O)cc1)NC(=O)[C@@H](NC(=O)[C@@H](N)CCCCN)C(C)C)C(=O)NCC(=O)N[C@@H](Cc1ccc(O)cc1)C(=O)N[C@@H](CS)C(=O)N[C@@H](CCSC)C(=O)N[C@@H](C)C(=O)O [3102.0272] (H-KVYIGYCMA-OH) | 2.6 nM
CC(C)C[C@H](N)C(=O)N[C@@H](C)C(=O)N[C@@H](CCCNC(=N)N)C(=O)N[C@@H](CCCNC(=N)N)C(=O)N1CCC[C@H]1C(=O)N[C@H](C(=O)N1CCC[C@H]1C(=O)N[C@@H](CCCCN)C(=O)N[C@@H](CCCCN)C(=O)O)[C@@H](C)O [3102.0275] (H-LARRPTPKK-OH) | 10 nM
CC[C@H](C)[C@H](NC(=O)[C@H](CO)NC(=O)[C@H](CO)NC(=O)[C@H](CO)NC(=O)[C@H](CCCCN)NC(=O)[C@H](CCCNC(=N)N)NC(=O)[C@H](CO)NC(=O)CN)C(=O)N[C@@H](CC(C)C)C(=O)O [3102.0276] (H-GSRKSSSIL-OH) | 1.6 nM
CSCC[C@H](NC(=O)[C@H](CCSC)NC(=O)[C@@H]1CCCN1C(=O)[C@@H](NC(=O)[C@@H](NC(=O)[C@H](CC(N)=O)NC(=O)[C@H](CCCNC(=N)N)NC(=O)[C@H](CO)NC(=O)[C@@H](N)CCCCN)[C@@H](C)O)[C@@H](C)O)C(=O)O [3102.0277] (H-KSRNTTPMM-OH) | 0.1 nM
C[C@H](NC(=O)[C@H](CCCNC(=N)N)NC(=O)[C@H](Cc1ccccc1)NC(=O)[C@H](CCCCN)NC(=O)[C@@H]1CCCN1C(=O)[C@@H]1CCCN1C(=O)[C@H](CCCCN)NC(=O)[C@H](Cc1ccccc1)NC(=O)[C@@H](N)Cc1c[nH]cn1)C(=O)O [3102.0279] (H-HFKPPKFRA-OH) | 8.9 nM
CC[C@H](C)[C@H](NC(=O)[C@H](C)NC(=O)[C@H](Cc1ccc(O)cc1)NC(=O)[C@H](CCCCN)NC(=O)[C@H](CCCCN)NC(=O)[C@H](CCCCN)NC(=O)[C@@H](NC(=O)[C@@H](N)CCCCN)C(C)C)C(=O)NCC(=O)O [3102.0280] (H-KVKKKYAIG-OH) | 1.6 nM
CC(C)C[C@H](NC(=O)[C@H](CCCNC(=N)N)NC(=O)[C@H](Cc1ccc(O)cc1)NC(=O)[C@H](CCC(=O)O)NC(=O)[C@H](CCC(N)=O)NC(=O)[C@H](Cc1ccccc1)NC(=O)[C@@H](NC(=O)[C@@H](N)Cc1c[nH]cn1)C(C)C)C(=O)N[C@@H](CCCCN)C(=O)O [3102.0284] (H-HVFQEYRLK-OH) | 27 nM
CC[C@H](C)[C@H](NC(=O)[C@H](CCCCN)NC(=O)[C@@H](NC(=O)[C@@H](N)CCCCN)[C@@H](C)O)C(=O)N[C@@H](CC(=O)O)C(=O)N[C@H](C(=O)N[C@H](C(=O)N[C@@H](Cc1ccccc1)C(=O)N[C@@H](C)C(=O)O)[C@@H](C)CC)[C@@H](C)CC [3102.0285] (H-KTKIDIIFA-OH) | 10 nM
CC(C)C[C@H](NC(=O)[C@H](C)NC(=O)[C@H](CCC(=O)O)NC(=O)[C@H](CCCNC(=N)N)NC(=O)[C@@H](NC(=O)[C@@H](N)CCCCN)C(C)C)C(=O)N[C@@H](CC(=O)O)C(=O)NCC(=O)N[C@H](C(=O)O)C(C)C [3102.0286] (H-KVREALDGV-OH) | 0.11 nM
CSCC[C@H](NC(=O)[C@H](CO)NC(=O)[C@H](C)NC(=O)CNC(=O)[C@H](CCCCN)NC(=O)[C@H](C)NC(=O)[C@H](C)N)C(=O)N[C@H](C(=O)N[C@@H](CC(C)C)C(=O)O)[C@@H](C)O [3102.0287] (H-AAKGASMTL-OH) | 1 nM
CC[C@H](C)[C@H](NC(=O)[C@H](CC(N)=O)NC(=O)[C@H](CCCNC(=N)N)NC(=O)[C@@H](NC(=O)[C@@H](NC(=O)[C@H](CC(N)=O)NC(=O)[C@H](CCCNC(=N)N)NC(=O)[C@@H](NC(=O)[C@@H](N)CCCCN)[C@@H](C)O)C(C)C)[C@@H](C)CC)C(=O)O [3102.0486] (H-KTRNVIRNI-OH) | 0.072 nM
CC[C@H](C)[C@H](NC(=O)[C@H](CC(=O)O)NC(=O)[C@H](CC(C)C)NC(=O)[C@H](Cc1ccccc1)NC(=O)[C@@H](N)CC(C)C)C(=O)N[C@@H](CCC(=O)O)C(=O)N[C@@H](CS)C(=O)N[C@@H](Cc1c[nH]cn1)C(=O)N[C@@H](Cc1ccccc1)C(=O)O [3102.0932] (H-LFLDIECHF-OH) | 19 nM
CC[C@H](C)[C@H](NC(=O)[C@H](Cc1c[nH]cn1)NC(=O)[C@H](Cc1ccc(O)cc1)NC(=O)[C@H](C)NC(=O)[C@H](CCCCN)NC(=O)[C@@H](N)CCCNC(=N)N)C(=O)N[C@H](C(=O)N[C@@H](Cc1ccccc1)C(=O)N[C@@H](Cc1ccccc1)C(=O)O)[C@@H](C)CC [3102.1054] (H-RKAYHIIFF-OH) | 5.4 nM
CC(C)C[C@H](NC(=O)[C@H](CO)NC(=O)[C@H](CCC(N)=O)NC(=O)[C@@H](N)Cc1ccc(O)cc1)C(=O)N[C@@H](CO)C(=O)N1CCC[C@H]1C(=O)N1CCC[C@H]1C(=O)N1CCC[C@H]1C(=O)N[C@@H](Cc1ccccc1)C(=O)O [3102.1242] (H-YQSLSPPPF-OH) | 0.5 nM
CC(C)C[C@H](NC(=O)[C@H](CO)NC(=O)[C@H](CCCCN)NC(=O)[C@H](CO)NC(=O)[C@H](C)N)C(=O)N[C@@H](CCCCN)C(=O)N1CCC[C@H]1C(=O)N[C@H](C(=O)N[C@@H](CCCCN)C(=O)O)[C@@H](C)O [3102.1346] (H-ASKSLKPTK-OH) | 15 nM
CC[C@H](C)[C@H](NC(=O)[C@H](CCCCN)NC(=O)[C@H](C)NC(=O)CN)C(=O)NCC(=O)N[C@@H](CS)C(=O)N[C@H](C(=O)N[C@@H](CC(N)=O)C(=O)N[C@H](C(=O)O)C(C)C)[C@@H](C)CC [3102.1347] (H-GAKIGCINV-OH) | 9.1 nM
CC[C@H](C)[C@H](NC(=O)[C@H](CCCCN)NC(=O)[C@H](CO)NC(=O)[C@H](CCCCN)NC(=O)[C@@H](NC(=O)[C@@H](N)CCCNC(=N)N)[C@@H](C)O)C(=O)N[C@@H](CC(C)C)C(=O)N[C@@H](Cc1ccccc1)C(=O)NCC(=O)O [3102.1348] (H-RTKSKILFG-OH) | 10 nM
C[C@H](NC(=O)[C@H](C)NC(=O)[C@@H]1CCCN1C(=O)[C@H](CCCCN)NC(=O)[C@H](CO)NC(=O)[C@H](CCCNC(=N)N)NC(=O)[C@H](CO)NC(=O)[C@H](Cc1ccc(O)cc1)NC(=O)[C@@H](N)CCCCN)C(=O)O [3102.1349] (H-KYSRSKPAA-OH) | 5.7 nM
CC[C@H](C)[C@H](NC(=O)[C@H](Cc1ccc(O)cc1)NC(=O)[C@H](CCC(N)=O)NC(=O)[C@H](Cc1ccc(O)cc1)NC(=O)[C@H](CCSC)NC(=O)[C@H](C)NC(=O)[C@H](C)N)C(=O)N[C@@H](Cc1ccccc1)C(=O)N[C@@H](CC(C)C)C(=O)O [3102.1350] (H-AAMYQYIFL-OH) | 7.5 nM

target: HLA B*1501 (Homo sapiens, UniProt P01889, A329T/A93T/A95T/C349S/D201E/D98Y/E187L/E204Q/E69M/E70A/K202T/N87E/Q94N/R155S/R180W/S121R/S35A/S48A/V306I/V36M/Y140S/Y91S); assay: biochemical; type: binding

SMILES | IC50
CC[C@H](C)[C@H](NC(=O)CNC(=O)[C@@H]1CCCN1C(=O)[C@@H](NC(=O)[C@H](CCCNC(=N)N)NC(=O)[C@H](CCC(N)=O)NC(=O)[C@H](CCCCN)NC(=O)[C@H](CC(C)C)NC(=O)[C@@H](N)CCCNC(=N)N)[C@@H](C)O)C(=O)O [3102.0640] (H-RLKQRTPGI-OH) | 17 nM
CSCC[C@H](NC(=O)[C@H](CC(C)C)NC(=O)[C@H](Cc1ccc(O)cc1)NC(=O)[C@H](CCCCN)NC(=O)[C@H](CCSC)NC(=O)[C@@H](N)CO)C(=O)N[C@@H](CC(C)C)C(=O)N[C@@H](CC(C)C)C(=O)N[C@@H](Cc1ccccc1)C(=O)O [3102.0789] (H-SMKYLMLLF-OH) | 3.8 nM
CC(C)C[C@H](N)C(=O)NCC(=O)N[C@@H](Cc1ccccc1)C(=O)N[C@@H](CC(=O)O)C(=O)N[C@H](C(=O)N[C@H](C(=O)N[C@@H](C)C(=O)N[C@@H](Cc1ccc(O)cc1)C(=O)N[C@@H](Cc1ccccc1)C(=O)O)C(C)C)C(C)C [3102.0790] (H-LGFDVVAYF-OH) | 67 nM
CC[C@H](C)[C@H](NC(=O)CN)C(=O)N[C@@H](CC(N)=O)C(=O)N[C@@H](CCCCN)C(=O)N[C@@H](CCCNC(=N)N)C(=O)N[C@@H](CO)C(=O)N[C@H](C(=O)N1CCC[C@H]1C(=O)N[C@@H](Cc1ccccc1)C(=O)O)[C@@H](C)O [3102.0792] (H-GINKRSTPF-OH) | 0.72 nM
CC[C@H](C)[C@H](NC(=O)[C@H](CO)NC(=O)[C@H](CO)NC(=O)[C@H](CCCCN)NC(=O)[C@@H](NC(=O)[C@@H](N)CC(C)C)C(C)C)C(=O)N[C@@H](CC(C)C)C(=O)N[C@H](C(=O)N[C@@H](CC(C)C)C(=O)O)[C@@H](C)O [3102.0793] (H-LVKSSILTL-OH) | 3.1 nM
CSCC[C@H](NC(=O)[C@@H](N)CCCNC(=N)N)C(=O)N[C@@H](CC(N)=O)C(=O)N[C@H](C(=O)N[C@@H](Cc1ccccc1)C(=O)N[C@@H](CC(N)=O)C(=O)NCC(=O)N[C@@H](Cc1c[nH]cn1)C(=O)N[C@@H](CC(C)C)C(=O)O)C(C)C [3102.0797] (H-RMNVFNGHL-OH) | 28 nM
CC(C)C[C@H](N)C(=O)N[C@@H](C)C(=O)N[C@@H](CC(N)=O)C(=O)N[C@H](C(=O)N[C@@H](CC(N)=O)C(=O)N[C@@H](Cc1ccccc1)C(=O)N[C@@H](Cc1ccccc1)C(=O)N[C@H](C(=O)N[C@@H](Cc1ccccc1)C(=O)O)C(C)C)[C@@H](C)O [3102.0800] (H-LANTNFFVF-OH) | 17 nM
CC[C@H](C)[C@H](NC(=O)[C@@H](NC(=O)[C@@H](N)CO)[C@@H](C)CC)C(=O)N[C@H](C(=O)N[C@@H](CC(C)C)C(=O)N[C@@H](Cc1ccccc1)C(=O)N[C@@H](CCC(N)=O)C(=O)N[C@@H](CCCNC(=N)N)C(=O)N[C@@H](Cc1ccccc1)C(=O)O)C(C)C [3102.0801] (H-SIIVLFQRF-OH) | 1.1 nM
CSCC[C@H](NC(=O)[C@H](CCC(=O)O)NC(=O)[C@H](C)NC(=O)[C@H](CC(N)=O)NC(=O)[C@H](CCC(=O)O)NC(=O)[C@H](CCCCN)NC(=O)[C@H](CC(N)=O)NC(=O)[C@H](CCSC)NC(=O)[C@@H](N)CC(C)C)C(=O)O [3102.0802] (H-LMNKENAEM-OH) | 7.7 nM
CC[C@H](C)[C@H](NC(=O)[C@@H](NC(=O)[C@@H](N)CC(C)C)[C@@H](C)CC)C(=O)N[C@@H](CCCCN)C(=O)N[C@@H](CO)C(=O)N[C@@H](CC(=O)O)C(=O)N[C@@H](Cc1c[nH]cn1)C(=O)N[C@@H](CCC(=O)O)C(=O)N[C@@H](Cc1ccccc1)C(=O)O [3102.0804] (H-LIIKSDHEF-OH) | 1.6 nM

target: HLA B*1503 (Homo sapiens, UniProt P01889, A329T/A93T/A95T/C349S/D201E/D98Y/E187L/E204Q/K202T/N87E/Q94N/R155S/R180L/S121R/S35A/V306I/V36M/Y140S/Y91S); assay: biochemical; type: binding

SMILES | IC50
CC[C@H](C)[C@H](NC(=O)[C@H](Cc1c[nH]cn1)NC(=O)[C@H](Cc1ccc(O)cc1)NC(=O)[C@H](C)NC(=O)[C@H](CCCCN)NC(=O)[C@@H](N)CCCNC(=N)N)C(=O)N[C@H](C(=O)N[C@@H](Cc1ccccc1)C(=O)N[C@@H](Cc1ccccc1)C(=O)O)[C@@H](C)CC [3102.1054] (H-RKAYHIIFF-OH) | 0.037 nM
CC(C)C[C@H](NC(=O)[C@H](CO)NC(=O)[C@H](CCC(N)=O)NC(=O)[C@@H](N)Cc1ccc(O)cc1)C(=O)N[C@@H](CO)C(=O)N1CCC[C@H]1C(=O)N1CCC[C@H]1C(=O)N1CCC[C@H]1C(=O)N[C@@H](Cc1ccccc1)C(=O)O [3102.1242] (H-YQSLSPPPF-OH) | 0.061 nM
